Reference: patent publication US20220400680A1, “USE OF ACYLCYANAMIDES OR SALTS THEREOF FOR REGULATING PLANT GROWTH” (Alzchem Trostberg GmbH, priority 2019, published 2022)

Tests used:
[1] = tested on: Grape, type Pinot Noir (C4); assay: Greenhouse test, cut wine sprouts C4 dipped in test solution, bud development stage; format: in vivo, Vitis vinifera subsp. vinifera; set-up: key to Bud development stage, wine sprouts C4: Stage 0: Buds unchanged; Stage 1: Buds slightly swollen, first green tips visible; Stage 2: strongly swollen, green buds; Stage 3: Buds before breaking open, leaf or flower root already visible; Stage 4: Flower buds fully developed, but still closed, white petals already visible. In the case of the grapevine, stage 4 was the unfolding of the first leaves; Stage 5: Flowers fully open or, in the case of grapevine, unfolding of the flower roots (“Gescheine”) on the fully leafed sprouts
Protocol: Greenhouse tests were conducted using cut fruit tree branches placed in water jars and maintained under controlled conditions with temperature regulation at approximately 22° C. and natural lighting. C4: Grape, Type Pinot Noir Grape: Vitis vinifera subsp. vinifera type Pinot Noir is an important and high quality red wine type that has existed for possibly 2000 years. It is cultivated all over the world because the type produces high quality red wines and has sufficient winter frost resistance. The type requires early and good areas with deep, warm, medium-heavy and fertile soils with good water supply. Pinot Noir produces regular, medium-high to high yields. However, there are a large number of clones that differ in yield, berry size and looseness. […] The test solutions were prepared directly, i.e. without intermediate preparation of a concentrate. For each of the test substances A-1 to A-13, an aqueous solution of 0.15 mol of the test substance and 0.15 g BreakThru® OE-446 was prepared and filled up to a total of 500 g with water. Of bis-cyanamides A-14 and A-15, 0.075 mol each was filled up to 500 g in an analogous manner. These test solutions (in combination with the above 4 species/types Cx) were given the test numbers Cx-A1 to Cx-A15. […] This was done with the following evaluation scale: • Stage 0: […] Flower buds fully developed, but still closed, white petals already visible. […] Flowers fully open or, in the case of grapevine, unfolding of the flower roots (“[…]”) on the fully leafed sprouts.

[2] = tested on: Table cherry, type Burlat (C3); assay: Greenhouse test, cut cherry branches C3 dipped in test solution, bud development stage; format: in vivo, Prunus avium; set-up: key to Bud development stage, cherry branches C3: Stage 0: Buds unchanged; Stage 1: Buds slightly swollen, first green tips visible; Stage 2: strongly swollen, green buds; Stage 3: Buds before breaking open, leaf or flower root already visible; Stage 4: Flower buds fully developed, but still closed, white petals already visible. In the case of the grapevine, stage 4 was the unfolding of the first leaves; Stage 5: Flowers fully open or, in the case of grapevine, unfolding of the flower roots (“Gescheine”) on the fully leafed sprouts
Protocol: Greenhouse tests were conducted using cut fruit tree branches placed in water jars and maintained under controlled conditions with temperature regulation at approximately 22° C. and natural lighting. C3: Table Cherry, Type Burlat Table cherry: Prunus avium type Bigarreau Burlat or […] is a strong-growing somewhat sparse growing sweet cherry tree with horizontal side sprouts. The type has been known since 1930 and is one of the most important types in commercial cultivation. […] Medium but regular yields identify the type as a secondary type for early and dry areas. […] The test solutions were prepared directly, i.e. without intermediate preparation of a concentrate. For each of the test substances A-1 to A-13, an aqueous solution of 0.15 mol of the test substance and 0.15 g BreakThru® OE-446 was prepared and filled up to a total of 500 g with water. Of bis-cyanamides A-14 and A-15, 0.075 mol each was filled up to 500 g in an analogous manner. These test solutions (in combination with the above 4 species/types Cx) were given the test numbers Cx-A1 to Cx-A15. […] This was done with the following evaluation scale: • Stage 0: […] Flower buds fully developed, but still closed, white petals already visible. […] Flowers fully open or, in the case of grapevine, unfolding of the flower roots (“[…]”) on the fully leafed sprouts.

[3] = tested on: Table apple, type Boiken apple (C1); assay: Greenhouse test, cut apple branches C1 dipped in test solution, bud development stage; format: in vivo, Malus domestica; set-up: key to Bud development stage, apple branches C1: Stage 0: Buds unchanged; Stage 1: Buds slightly swollen, first green tips visible; Stage 2: strongly swollen, green buds; Stage 3: Buds before breaking open, leaf or flower root already visible; Stage 4: Flower buds fully developed, but still closed, white petals already visible. In the case of the grapevine, stage 4 was the unfolding of the first leaves; Stage 5: Flowers fully open or, in the case of grapevine, unfolding of the flower roots (“Gescheine”) on the fully leafed sprouts; conditions: for Dormancy-breaking effect according to the definition, apple C1: stage 4 reached or exceeded after 36 days vs negative control
Protocol: Greenhouse tests were conducted using cut fruit tree branches placed in water jars and maintained under controlled conditions with temperature regulation at approximately 22° C. and natural lighting. C1: Table Apple, Type Boiken Apple Table apple: Malus domestica type Boiken first described in 1828 in Bremen after Deichvogt Boiken. Apple type for rough locations and for almost every soil suitable scattered fruit type, whereby heavy soils and not too warm locations are required. Tree growth initially strong, later medium. Older crowns become broadly spherical and are loosely branched. Flowering starting medium-late and long lasting, petals large with little pink. Yield starting late (October) and irregular; with long shelf life and pressure resistance. […] The test solutions were prepared directly, i.e. without intermediate preparation of a concentrate. For each of the test substances A-1 to A-13, an aqueous solution of 0.15 mol of the test substance and 0.15 g BreakThru® OE-446 was prepared and filled up to a total of 500 g with water. Of bis-cyanamides A-14 and A-15, 0.075 mol each was filled up to 500 g in an analogous manner. These test solutions (in combination with the above 4 species/types Cx) were given the test numbers Cx-A1 to Cx-A15. […] This was done with the following evaluation scale: • Stage 0: […] Flower buds fully developed, but still closed, white petals already visible. […] Flowers fully open or, in the case of grapevine, unfolding of the flower roots (“[…]”) on the fully leafed sprouts.

[4] = tested on: Table apple, type Zabergäu-Renette (C2); assay: Greenhouse test, cut apple branches C2 dipped in test solution, bud development stage; format: in vivo, Malus domestica; set-up: key to Bud development stage, apple branches C2: Stage 0: Buds unchanged; Stage 1: Buds slightly swollen, first green tips visible; Stage 2: strongly swollen, green buds; Stage 3: Buds before breaking open, leaf or flower root already visible; Stage 4: Flower buds fully developed, but still closed, white petals already visible. In the case of the grapevine, stage 4 was the unfolding of the first leaves; Stage 5: Flowers fully open or, in the case of grapevine, unfolding of the flower roots (“Gescheine”) on the fully leafed sprouts; conditions: for Dormancy-breaking effect according to the definition, apple C2: stage 4 reached or exceeded after 36 days vs negative control
Protocol: Greenhouse tests were conducted using cut fruit tree branches placed in water jars and maintained under controlled conditions with temperature regulation at approximately 22° C. and natural lighting. C2: Table Apple, Type […] Table apple: Malus domestica type […] first developed in 1885 as a chance seedling in Hausen a.d. Zaber/Baden-Württemberg and initially grown as 'Hausener Graue […]'. No defined storage type; requires heavy soils (loam). Tree growth initially strong with oblique upright leading branches, later medium with flat branches. Crown broad and flat-spherical with flat fruiting wood. Leaves large, broad oval and with clearly separated tip. Triploid type with late and long-lasting flowering. Yield starting early, medium high and somewhat alternate. […] The test solutions were prepared directly, i.e. without intermediate preparation of a concentrate. For each of the test substances A-1 to A-13, an aqueous solution of 0.15 mol of the test substance and 0.15 g BreakThru® OE-446 was prepared and filled up to a total of 500 g with water. Of bis-cyanamides A-14 and A-15, 0.075 mol each was filled up to 500 g in an analogous manner. These test solutions (in combination with the above 4 species/types Cx) were given the test numbers Cx-A1 to Cx-A15. […] This was done with the following evaluation scale: • Stage 0: […] Flower buds fully developed, but still closed, white petals already visible. […] Flowers fully open or, in the case of grapevine, unfolding of the flower roots (“[…]”) on the fully leafed sprouts.

[5] = T1 (14 d), 0.15 mol (A-14, A-15: 0.075 mol) per 500 g solution
[6] = stage 4 reached or exceeded after 27 days vs negative control

Compound	Bud development stage, wine sprouts C4 [1, 5]	Bud development stage, wine sprouts C4 ([1]; T2 (16 d))	Bud development stage, wine sprouts C4 ([1]; T3 (21 d))	Bud development stage, wine sprouts C4 ([1]; T4 (27 d))	Bud development stage, wine sprouts C4 ([1]; T5 (36 d))	Bud development stage, wine sprouts C4 ([1]; T6 (56 d))	Bud development stage, cherry branches C3 [2, 5]	Bud development stage, cherry branches C3 ([2]; T2 (16 d))	Bud development stage, cherry branches C3 ([2]; T3 (21 d))	Bud development stage, cherry branches C3 ([2]; T4 (27 d))	Bud development stage, cherry branches C3 ([2]; T5 (36 d))	Bud development stage, cherry branches C3 ([2]; T6 (56 d))	Bud development stage, apple branches C1 [3, 5]	Bud development stage, apple branches C1 ([3]; T2 (16 d))	Bud development stage, apple branches C1 ([3]; T3 (21 d))	Bud development stage, apple branches C1 ([3]; T4 (27 d))	Bud development stage, apple branches C1 ([3]; T5 (36 d))	Bud development stage, apple branches C1 ([3]; T6 (56 d))	Bud development stage, apple branches C2 [4, 5]	Bud development stage, apple branches C2 ([4]; T2 (16 d))	also measured
COC(=O)NC#N.[Na] [Example A-3, Sodium methoxy carbonyl cyanamide]	0	0	0	1	5	5	0	0	0	1	3	5	1	1	2	3	4	5	0	0	Dormancy-breaking effect according to the definition, wine C4 ([1]; stage 4 reached or exceeded after 36 days vs negative control): dormancy-breaking effect; Dormancy-breaking effect according to the definition, apple C1 [3]: dormancy-breaking effect; Bud development stage, apple branches C2 ([4]; T3 (21 d)): 0; Bud development stage, apple branches C2 ([4]; T4 (27 d)): 2; Bud development stage, apple branches C2 ([4]; T5 (36 d)): 4; Bud development stage, apple branches C2 ([4]; T6 (56 d)): 4; Dormancy-breaking effect according to the definition, apple C2 [4]: dormancy-breaking effect
N#CN [cyanamide]	0	0	2	5	5	5	2	4	5	5	5	5	3	4	5	5	5	5	0	0	Bud development stage, apple branches C2 ([4]; T3 (21 d)): 3; Bud development stage, apple branches C2 ([4]; T4 (27 d)): 4; Bud development stage, apple branches C2 ([4]; T5 (36 d)): 5; Bud development stage, apple branches C2 ([4]; T6 (56 d)): 5
CCCC(=O)NC#N.[Na] [Example A-6, Sodium butyryl cyanamide]	0	0	0	1	2	5	1	1	3	5	5	5	2	3	4	5	5	5	0	0	Dormancy-breaking effect according to the definition, cherry C3 [2, 6]: dormancy-breaking effect; Good to very good dormancy-breaking effect, apple C1 [3, 6]: good to very good dormancy-breaking effect; Dormancy-breaking effect according to the definition, apple C1 [3]: dormancy-breaking effect; Bud development stage, apple branches C2 ([4]; T3 (21 d)): 1; Bud development stage, apple branches C2 ([4]; T4 (27 d)): 2; Bud development stage, apple branches C2 ([4]; T5 (36 d)): 5; Bud development stage, apple branches C2 ([4]; T6 (56 d)): 5; Dormancy-breaking effect according to the definition, apple C2 [4]: dormancy-breaking effect
